Test results as given in ChEMBL document CHEMBL1765059, “Bunodosine 391: an analgesic acylamino acid from the venom of the sea anemone Bunodosoma cangicum” (J Nat Prod, 2011).
Calls of active or inactive are those of the source.

How the values were obtained:
Assay type in all cases: functional, organism-based
Rattus norvegicus [1] = organism: Rattus norvegicus; test: Antinociceptive activity against carrageenan-induced hyperalgesia in Wistar rat assessed as increase in pain threshold at 105 nm/paw, i.pl in presence of 1 ug/paw of opioid antagonist naloxone treated 30 mins before compound challenge
Rattus norvegicus [2] = test: Antiinflammatory activity against carrageenan-induced edema in Wistar rat assessed as paw thickness at 105 nm/paw i.pl administered before 30 mins of carrageenan challenge
Rattus norvegicus [3] = test: Antinociceptive activity against carrageenan-induced hyperalgesia in Wistar rat assessed as increase in pain threshold at 105 nm/paw, i.pl administered after 150 mins of carrageenan challenge by paw pressure test
Rattus norvegicus [4] = test: Antinociceptive activity in i.pl dosed Wistar rat assessed as increase in pain threshold by paw pressure test
Rattus norvegicus [5] = test: Antinociceptive activity against carrageenan-induced hyperalgesia in Wistar rat assessed as increase in pain threshold at 105 nm/paw, i.pl in presence of 5 mg/kg of nonselective serotonin antagonist methysergide treated 30 mins before compound challenge; parameters: dose 5 mg/kg

With `O=C(Cc1c[nH]c2cc(Br)ccc12)N[C@@H](Cc1c[nH]cn1)C(=O)O` the Activity (Rattus norvegicus [1]) was “Active”, the inhibition (Rattus norvegicus [2]) was “inactive” and the inhibition (Rattus norvegicus [3]) was “Active”. For the same compound, the Activity (Rattus norvegicus [4]) was “Dose-dependent effect” and the Activity (Rattus norvegicus [5]) was “inactive”.
